Like-named read-outs stand apart in the source and are kept apart here.
What was measured:
[1] = Crossover study with pharmacokinetic analysis, single oral dose in healthy male subjects; assay type: in vivo, human; settings: for concentration at 6 days: oral, subjects who received placebo in Period 2
Description: The pharmacokinetics (PK), safety, and tolerability of single doses of Compound A in healthy right-handed male human subjects were investigated in a randomized, double-blind, placebo-controlled, transcranial magnetic stimulation (TMS) crossover study.
An objective of the study was to evaluate the safety, tolerability, and pharmacokinetics of single doses of Compound A in healthy male subjects.
Twenty healthy right-handed male subjects were enrolled and randomized in a blinded fashion to receive a single oral dose of 20 mg Compound A or placebo (1:1 randomization ratio) on Day 1, then were crossed over to receive a single dose of the other treatment on Day 7.
Subjects were screened within 27 days prior to entering the study on Day 1. For Period 1, subjects were admitted to the study unit and dosed on Day 1, and discharged on Day 2. For Period 2, following a washout of 6 days, the same subjects were again admitted to the study unit and dosed on Day 7, and discharged on Day 8. All subjects returned to the clinical unit for an outpatient visit on Day 14, and received a follow-up telephone call on Day 37.
Subjects were dosed in a fed state, but the timing of dosing relative to meals was changed during the study, and varied between a high fat or standard meal eaten either 2 h or 30 minutes prior to dosing, and a high fat or standard meal eaten 1 h or 2.5 h after dosing.
The PK parameters for this study were summarized in two ways. Firstly, PK parameters were calculated where possible using the PK samples collected during each 24 h sampling period for Period 1 and Period 2 separately. Secondly, PK parameters were determined using samples beyond the 24 h sampling period (i.e., from Day 7/8 and/or Day 14). For subjects who received Compound A in the first period, PK samples taken prior to placebo treatment provided additional PK timepoints at >24 h. For subjects who received Compound A in the second period, there was no >24 h PK timepoint until a Day 14 PK sample was added. […] The full PK profile data set consists of the 16 subjects for whom PK samples were taken at >24 h post-dose. For discussion of the PK parameters below, the full PK profile data set was generally used, because it allowed more accurate estimation of PK parameters.
Initially, subjects were dosed 2 hours after a high fat meal with a relatively high fat lunch provided 1 hour after dosing. After blinded review of the PK profiles in the initial 8 subjects, the fat content of the lunch was reduced in an attempt to reduce the time to Tmax. In addition, the timing of the meal relative to dose was changed from 2 hours prior, to 30 minutes prior to dose and subsequently the fat content of the breakfast was reduced. The timing and type of meal for each subject is specified in Table 8. […] As such the PK data is presented without categorization according to meal content, or relative timing of the meal.

[2] = system: CD1 mice (acetic acid induced writhing); experiment: Acetic acid writhing (AAW) mouse model of visceral/inflammatory pain; assay type: in vivo; settings: for EC50: Mus musculus, PK/PD correlation; for number of nociceptive events: CD1 mice, 0.4% acetic acid i.p.
Description: Objective: The acetic acid test was performed to assess the potential efficacy of Compound A in the acetic acid writhing (AAW) model of inflammatory pain. The AAW test was performed as described previously ([…] Bi et al., “Visceral hyperalgesia induced by forebrain-specific suppression of native Kv7/KCNQ/M-current in mice.” Mol. Pain 2011, 7:84; Gabriela F. Pavao-de-Souza et al., “Acetic acid- and phenyl-p-benzoquinone-induced overt pain-like behavior depends on spinal activation of MAP kinases, PI3K and microglia in mice.” Pharmacol. Biochem. Behav. 101 (2012) 320-328; […] Lett. 413 (2007) 159-162; Mosad A. Ghareeb et al., “HPLC-ESI-MS/MS Profiling of Polyphenolics of a Leaf Extract from Alpinia zerumbet (Zingiberaceae) and Its Anti-Inflammatory, Anti-Nociceptive, and Antipyretic Activities In Vivo.” Molecules 23 (2018) 3238; and […] et al., “Analgesic Activity of Acid-Sensing Ion Channel 3 (ASIC3) Inhibitors: Sea Anemones Peptides Ugr9-1 and APETx2 versus Low Molecular Weight Compounds.” Mar. Drugs 16 (2018), 500). Study Design: Briefly, acetic acid was injected intraperitoneally at 0.4% concentration in 6-7 week old CD1 mice. After the injection of acetic acid, animals were placed in a chamber and their subsequent writhing behavior was video recorded. A writhe is defined as contraction of abdominal muscles accompanied by elongation of the body and extension of hind limbs or rotation of the trunk. […] were counted between 5-15 min after the injection of acetic acid. Selection of Acetic Acid Dose: Based on the concentration response (0.2-0.8%) of acetic acid in CD1 mice, EC75 concentration (0.4%) was selected to produce optimal writhing response. Diclofenac was used as positive control in the acetic acid model.

[3] = 20 mg single oral dose, fed, Full PK Profile (N = 16)
[4] = 20 mg single oral dose, fed, Overall (N = 20)
[5] = 20 mg single oral dose, fed, Period 1 (N = 10)
[6] = 20 mg single oral dose, fed, Period 2 (N = 10)
[7] = 20 mg single oral dose, full PK data set

Cc1cc(N2CCc3cc(F)ccc3C2)cc(C)c1NC(=O)CC(C)(C)C [Compound A, N-[4-(6-fluoro-3,4-dihydro-TH-isoquinolin-2-yl)-2,6-dimethylphenyl]-3,3-dimethylbutanamide]
Clast (ng/mL), Mean ± SD [1, 3]: 4.52 ± 1.82 ng/mL | Clast (ng/mL), Range [1, 3]: 1.33 to 7.67 ng/mL | Tlast (h), Mean ± SD [1, 3]: 235 ± 81.5 h | Tlast (h), Range [1, 3]: 142 to 360 h | Clast (ng/mL), Mean ± SD [1, 4]: 16.4 ± 4.69 ng/mL | Clast (ng/mL), Range [1, 4]: 7.1 to 27.8 ng/mL | Tlast (h), Mean ± SD [1, 4]: 23.8 ± 0.299 h | Tlast (h), Range [1, 4]: 23.1 to 24.3 h | Tmax (h), Median [1, 4]: 7.83 h | Tmax (h), Range [1, 4]: 1.92 to 12 h | Clast (ng/mL), Mean ± SD [1, 5]: 16.4 ± 5.61 ng/mL | Clast (ng/mL), Range [1, 5]: 10.1 to 27.8 ng/mL | Tlast (h), Mean ± SD [1, 5]: 23.8 ± 0.375 h | Tlast (h), Range [1, 5]: 23.1 to 24.3 h | Clast (ng/mL), Mean ± SD [1, 6]: 16.4 ± 3.87 ng/mL | Clast (ng/mL), Range [1, 6]: 7.1 to 21.3 ng/mL | Tlast (h), Mean ± SD [1, 6]: 23.8 ± 0.213 h | Tlast (h), Range [1, 6]: 23.5 to 24.1 h | extrapolated area (% AUCextrap), median [1, 7]: 19.9% | extrapolated area (% AUCextrap), range [1, 7]: 10.6-40.5% | concentration at 6 days ([1]; male, human, plasma, 20 mg, read-out: Compound A levels after washout between periods, mean): 3.1 ng/mL | concentration at 6 days ([1]; male, human, plasma, 20 mg, read-out: Compound A levels after washout between periods, range): 1.3 to 6.8 ng/mL | concentration at 2 h ([1]; male, human, plasma, po, 20 mg, 2 h timepoint, 20 mg single oral dose, full PK profile, read-out: mean SD plasma concentration): 15.9 ± 21.4 ng/mL | concentration at 4 h ([1]; male, human, plasma, po, 20 mg, 4 h timepoint, 20 mg single oral dose, full PK profile, read-out: mean SD plasma concentration): 30.2 ± 21.1 ng/mL | concentration at 6 h ([1]; male, human, plasma, po, 20 mg, 6 h timepoint, 20 mg single oral dose, full PK profile, read-out: mean SD plasma concentration): 42.1 ± 19.1 ng/mL | AUC(0-inf) ([1]; male, human, plasma, 20 mg single oral dose, fed, Full PK Profile Data Set (N = 16), read-out: AUCinf (ng*h/mL), Range): 1920 to 7390 ng·h/mL | AUC(0-t) ([1]; male, human, plasma, 20 mg single oral dose, fed, Full PK Profile Data Set (N = 16), read-out: AUClast (ng*h/mL), Range): 1580 to 4400 ng·h/mL | CL/F ([1]; male, human, plasma, 20 mg single oral dose, fed, Full PK Profile Data Set (N = 16), read-out: CL/F normalized (mL/h/kg), Range): 40.3 to 136 mL/h/kg | MRT inf ([1]; male, human, plasma, 20 mg single oral dose, fed, Full PK Profile Data Set (N = 16), read-out: MRTinf (h), Range): 33 to 304 h | MRT last ([1]; male, human, plasma, 20 mg single oral dose, fed, Full PK Profile Data Set (N = 16), read-out: MRTlast (h), Range): 48.2 to 122 h | Vd/F ([1]; male, human, plasma, 20 mg single oral dose, fed, Full PK Profile Data Set (N = 16), read-out: Vz/F normalized (L/kg), Range): 6.4 to 33.8 L/kg | Tmax ([1]; male, human, plasma, 20 mg single oral dose, fed, Overall (N = 20), read-out: Tmax (h), Median): ~8 h | EC50 ([2]; read-out: EC50 (effective concentration to give a 50% reduction in nociceptive events), concentration in brain): 400 nM | EC50 ([2]; read-out: EC50 (effective concentration to give a 50% reduction in nociceptive events), concentration in plasma): 250 nM | number of nociceptive events ([2]; Study 1, vehicle, 1, 3 and 10 mg/kg): dose-responsive decrease | number of nociceptive events ([2]; Study 2, 10 mg/kg): decrease

Reference: US20240342156A1, “METHODS FOR TREATING PAIN” (Xenon Pharmaceuticals Inc., priority 2019, published 2024)
